Measurements from patent US10934297B2, “5-heteroaryl substituted indazole-3-carboxamides and preparation and use thereof” (Samumed, LLC, priority 2018, dated 2021).

Experiments:
[1] = system: IL-6; test: IL-6 inhibition in LPS-stimulated human peripheral blood mononuclear cells (HTRF); assay type: cell-based; conditions: Homo sapiens, PBMC; for EC50: huPBMCs, LPS 50 ng/mL, 22 hours, IL-6 HTRF; for inhibition at 10 µM: read-out: percent inhibition at 10 μM
Procedure, shortened: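 HTRF 665/620 nm ratio, read after 3 h antibody incubation at room temperature, quantified IL-6 released by fresh human PBMCs (1×10e6 cells/mL, 1% FBS-RPMI). The cells got compound, then 50 ng/mL LPS at 2 h, followed by a further 22 h at 37° C. EC50 came from DMSO-normalized readings run in duplicate.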

[2] = target: DYRK1A kinase (Homo sapiens (Human), UniProt Q13627); test: DYRK1A kinase assay (Ser/Thr 18 peptide Z-lyte FRET); assay type: biochemical; conditions: read-out: EC50 (method: IC50)
Procedure, shortened: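 Kinase reactions with compound ran 1 h at room temperature in duplicate, and development reagent was then added for another hour.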

[3] = system: primary human fibroblasts derived from IPF patients (LL29 cells); test: Inhibition of the fibrotic process: αSMA staining in TGF-β1 treated LL29 fibroblasts; assay type: cell-based; conditions: Homo sapiens, Fibroblast, 96 h; LL29 cells, TGF-β1 20 ng/mL, 4 days, % αSMA positive cells
Procedure, shortened: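 LL29 fibroblasts from IPF patients, in F12 medium with 1% FBS, treated with TGF-β1 plus compound; TGF-β1 with DMSO as positive control, DMSO alone as negative control. After 4 days' incubation, SYTOX green nucleic acid stain added at 1 μM final, 30 min at room temperature.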

[4] = system: Wnt activity (Sp5-Luc reporter in SW480 cells); test: Screening assay for Wnt activity: Sp5-Luc reporter gene assay in SW480 colon carcinoma cells; assay type: cell-based, human; conditions: Homo sapiens, 36 to 48 hours
Procedure, shortened: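 EC50 values come from a variable-slope four-parameter fit of luminescence normalized to DMSO-only wells. The read-out follows 36–48 h incubation at 37 °C, 5% CO2, in DMEM containing 1% fetal bovine serum. Cells are hygromycin-selected SW480 stably expressing firefly luciferase under a Wnt-responsive Sp5 promoter (eight TCF/LEF sites).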

[5] = system: primary human mesenchymal stem cells (hMSCs); test: Tenocyte differentiation assay (SCXA-positive cells) in hMSCs; assay type: cell-based; conditions: for EC50: Homo sapiens, Mesenchymal stem cells, 96 h, hMSCs, 4 days, SCXA positive cells; for percent in parentheses under EC50 >100: given for EC50 >100 μM, meaning not defined in this example
Procedure, shortened: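 Passage 3–6 hMSCs were compound-treated, fixed in 4% formaldehyde and stained overnight at 4 °C with anti-SCXA antibody; SCXA-positive cells were counted by imaging. Counts were normalized to the mean of 12 DMSO wells as fold change, averaged over 3 replicate wells per concentration, and curve-fitted for EC50.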

[6] = target: GSK3β kinase (Homo sapiens (Human), UniProt P49841); test: GSK3β kinase assay (Ser/Thr 09 peptide Z-lyte FRET); assay type: biochemical; conditions: read-out: EC50 (method: IC50)
Procedure, shortened: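 Non-radioactive Z-lyte FRET read-out, kinase activity expressed as coumarin/fluorescein emission ratio. Compounds incubated with the reaction mixture one hour at room temperature in duplicate, then development buffer added for another hour. IC50 from non-linear regression of dose-response curves.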

[7] = system: SW480 colon carcinoma cells; test: Cell viability assay (CellTiter-Glo) in SW480 colon carcinoma cells; assay type: cell-based, human; conditions: Homo sapiens, 96 h, four days
Procedure, shortened: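 Viability was taken from CellTiter-Glo ATP luminescence, read about 12 min after reagent addition, relative to DMSO controls. The cells were Sp5-Luc reporter SW480 colon carcinoma cells, 2,000/well in 1% FBS DMEM, exposed to compound for four days at 37 °C.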

Sequence of GSK3β kinase (P49841 whole entry): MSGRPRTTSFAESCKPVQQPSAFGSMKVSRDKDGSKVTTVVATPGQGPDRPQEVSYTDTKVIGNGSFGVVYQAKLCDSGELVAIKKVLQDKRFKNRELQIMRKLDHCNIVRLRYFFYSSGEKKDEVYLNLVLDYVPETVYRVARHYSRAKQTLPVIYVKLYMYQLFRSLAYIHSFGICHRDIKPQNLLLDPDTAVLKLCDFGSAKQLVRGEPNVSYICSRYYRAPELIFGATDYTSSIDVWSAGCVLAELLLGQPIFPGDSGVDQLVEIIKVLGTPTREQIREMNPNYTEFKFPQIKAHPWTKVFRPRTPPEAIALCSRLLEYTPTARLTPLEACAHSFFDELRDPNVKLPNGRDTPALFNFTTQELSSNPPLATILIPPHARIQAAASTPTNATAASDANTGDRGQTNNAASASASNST

| Compound | EC50 [1] [nM] | IC50 [2] [nM] | EC50 [4] [nM] | EC50 [5] [nM] | IC50 [6] [nM] | EC50 [7] [nM] | percent in parentheses under EC50 >100 [5] | inhibition at 10 µM [1] [%] | EC50 [3] [nM] |
| --- | --- | --- | --- | --- | --- | --- | --- | --- | --- |
| Cc1ncc(-c2ccc3[nH]nc(C(=O)NC4CCN(c5ccc(F)cc5)CC4)c3c2)n1C [Compound 148, 5-(1,2-Dimethyl-1H-imidazol-5-yl)-N-(1-(4-fluorophenyl)piperidin-4-yl)-1H-indazole-3-carboxamide] | > 10000 | 49 | 4490 | 3090 | 57 | 8020 |  | 24.2 | 4620 |
| CN1CCN(c2cccc(NC(=O)c3n[nH]c4cc(F)c(-c5cnn(C)c5)cc34)c2)CC1 [Compound 149, 6-Fluoro-5-(1-methyl-1H-pyrazol-4-yl)-N-(3-(4-methylpiperazin-1-yl)phenyl)-1H-indazole-3-carboxamide] | > 10000 | 1 | 217 | > 100000 | 49 | 331 | (36.0%) | 44.7 | > 10000 |
| Cn1cc(-c2cc3c(C(=O)Nc4cccc(OC5CCNCC5)c4)n[nH]c3cc2F)cn1 [Compound 150, 6-Fluoro-5-(1-methyl-1H-pyrazol-4-yl)-N-(3-(piperidin-4-yloxy)phenyl)-1H-indazole-3-carboxamide] | 3570 | 4 | 248 | > 100000 | 52 | 214 | (17.4%) |  | 317 |
| Cn1cc(-c2cc3c(C(=O)Nc4cccc(OCCN5CCCC5)c4)n[nH]c3cc2F)cn1 [Compound 154, 6-Fluoro-5-(1-methyl-1H-pyrazol-4-yl)-N-(3-(2-(pyrrolidin-1-yl)ethoxy)phenyl)-1H-indazole-3-carboxamide] | 1860 | 5 | 306 | > 100000 | 20 | 414 | (21.0%) |  | 1130 |
| CN1CCC(Oc2cc(NC(=O)c3n[nH]c4cc(F)c(-c5cnn(C)c5)cc34)ccn2)CC1 [Compound 156, 6-Fluoro-5-(1-methyl-1H-pyrazol-4-yl)-N-(2-((1-methylpiperidin-4-yl)oxy)pyridin-4-yl)-1H-indazole-3-carboxamide] | 4290 | 2 | 109 | 2640 | 53 | 64 |  |  | 1380 |
| CN1CCC(Oc2ncc(NC(=O)c3n[nH]c4cc(F)c(-c5cnn(C)c5)cc34)cc2F)CC1 [Compound 157, 6-Fluoro-N-(5-fluoro-6-((1-methylpiperidin-4-yl)oxy)pyridin-3-yl)-5-(1-methyl-1H-pyrazol-4-yl)-1H-indazole-3-carboxamide] | 1310 | 1 | 1150 | > 100000 | 20 | 1300 | (35.3%) |  | 2580 |
| CN1CCC(n2cc(-c3ccc4[nH]nc(C(=O)Nc5ccc(F)cc5)c4c3)cn2)CC1 [Compound 159, N-(4-Fluorophenyl)-5-(1-(1-methylpiperidin-4-yl)-1H-pyrazol-4-yl)-1H-indazole-3-carboxamide] | 2820 | 23 | 680 | > 100000 | 548 | 810 | (15.5%) |  | 1370 |
| Cc1nc(-c2ccc3[nH]nc(C(=O)Nc4ccc(OC5CCN(C)CC5)cc4)c3c2)cs1 [Compound 162, N-(4-((1-Methylpiperidin-4-yl)oxy)phenyl)-5-(2-methylthiazol-4-yl)-1H-indazole-3-carboxamide] | 7690 | 141 | > 10000 | > 100000 | 5060 | 4600 | (12.7%) |  | 2640 |
| Cc1ncc(-c2cc3c(C(=O)Nc4ccc(OC5CCN(C)CC5)cc4)n[nH]c3cc2F)s1 [Compound 163, 6-Fluoro-N-(4-((1-methylpiperidin-4-yl)oxy)phenyl)-5-(2-methylthiazol-5-yl)-1H-indazole-3-carboxamide] | 8830 | 4 | 1530 | > 100000 | 94 | 331 | (40.7%) |  | 1000 |

More lines, main results first:

| EC50 [1] [nM] | IC50 [2] [nM] | EC50 [4] [nM] | EC50 [5] [nM] | IC50 [6] [nM] | EC50 [7] [nM] | percent in parentheses under EC50 >100 [5] | Compound | inhibition at 10 µM [1] [%] | EC50 [3] [nM] |
| --- | --- | --- | --- | --- | --- | --- | --- | --- | --- |
| 7370 | 5 | 113 | > 100000 | 80 | 258 | (3.5%) | CN1CCC(Oc2cccc(NC(=O)c3n[nH]c4cc(F)c(-c5cnn(C)c5)cc34)c2)CC1 [Compound 151, 6-Fluoro-5-(1-methyl-1H-pyrazol-4-yl)-N-(3-((1-methylpiperidin-4-yl)oxy)phenyl)-1H-indazole-3-carboxamide] |  | > 10000 |
| 6850 | 38 | 1460 | > 100000 | 65 | 783 | (34.7%) | CN1CCC(Oc2ccc(NC(=O)c3n[nH]c4c(F)cc(-c5cnn(C)c5)cc34)cc2)CC1 [Compound 152, 7-Fluoro-5-(1-methyl-1H-pyrazol-4-yl)-N-(4-((1-methylpiperidin-4-yl)oxy)phenyl)-1H-indazole-3-carboxamide] |  | 1120 |
| > 10000 | 1210 | > 10000 | > 100000 | > 10000 | > 10000 | (20.7%) | CN1CCC(Oc2ccc(NC(=O)c3n[nH]c4cc(F)c(-c5cn(C)nc5CO)cc34)cc2)CC1 [Compound 153, 6-Fluoro-5-(3-(hydroxymethyl)-1-methyl-1H-pyrazol-4-yl)-N-(4-((1-methylpiperidin-4-yl)oxy)phenyl)-1H-indazole-3-carboxamide] | 3.7 | > 10000 |
| 5990 | 23 | 1160 | > 100000 | 349 | 784 | (17.4%) | CC(C)n1cc(-c2cc3c(C(=O)Nc4ccc(OC5CCN(C)CC5)cc4)n[nH]c3cc2F)cn1 [Compound 158, 6-Fluoro-5-(1-isopropyl-1H-pyrazol-4-yl)-N-(4-((1-methylpiperidin-4-yl)oxy)phenyl)-1H-indazole-3-carboxamide] |  | 1150 |
| > 10000 | 61 | 3560 | > 100000 | 3260 | 2600 | (18.6%) | CN1CCC(Oc2ccc(NC(=O)c3n[nH]c4cc(F)c(-c5ccn(C)n5)cc34)cc2)CC1 [Compound 160, 6-Fluoro-5-(1-methyl-1H-pyrazol-3-yl)-N-(4-((1-methylpiperidin-4-yl)oxy)phenyl)-1H-indazole-3-carboxamide] | 27.9 | 3240 |
| 3400 | 5 | 642 | > 100000 | 120 | 833 | (31.8%) | Cc1ncc(-c2ccc3[nH]nc(C(=O)Nc4ccc(OC5CCN(C)CC5)cc4)c3c2)n1C [Compound 161, 5-(1,2-Dimethyl-1H-imidazol-5-yl)-N-(4-((1-methylpiperidin-4-yl)oxy)phenyl)-1H-indazole-3-carboxamide] |  | 3720 |
| 1330 | 3 | 1380 | > 100000 | 88 | 268 | (33.1%) | Cc1cc(-c2ccc3[nH]nc(C(=O)Nc4ccc(OC5CCN(C)CC5)cc4)c3c2)sn1 [Compound 164, 5-(3-Methylisothiazol-5-yl)-N-(4-((1-methylpiperidin-4-yl)oxy)phenyl)-1H-indazole-3-carboxamide] |  | 305 |
